Source: ChEMBL document CHEMBL1130973, “Synthesis and biological evaluation of 3-arylisoquinolines as antitumor agents” (Bioorg Med Chem Lett, 1998)
Values joined by “and” are separate entries in the source; they are usually repeats but may differ in a detail not shown here. Identical values can stand only once.

Assays:
XF498 (Homo sapiens) = assay: In vitro cytotoxicity against XF498 (human CNS) tumor cell line.
SK-MEL-2 [1] = assay: In vitro cytotoxicity against SK-MEL-2 (human melanoma) tumor cell line.; assay type: functional, cell-based
A549 [2] = assay: Tested for in vitro cytotoxicity against A 549 (human lung) tumor cell line using sulforhodamine B (SRB) assay; assay type: functional, cell-based
SK-OV-3 [3] = assay: In vitro cytotoxicity against SKOV-3 (human ovarian) tumor cell line.; assay type: functional, cell-based
HCT-15 (Homo sapiens) [4] = assay: In vitro cytotoxicity against HCT 15 (human colon) tumor cell line.
A549 [5] = assay: Tested for in vitro cytotoxicity against A 549 (human lung) tumor cell line using sulforhodamine B (SRB) assay; not active (> 100 uM); assay type: functional, cell-based
SK-OV-3 [6] = assay: Tested for in vitro cytotoxicity against SKOV-3 (human ovarian) tumor cell line using sulforhodamine B (SRB) assay; not active (> 100 uM); assay type: functional, cell-based
HCT-15 (Homo sapiens) [7] = assay: Tested for in vitro cytotoxicity against HCT 15 (human colon) tumor cell line using sulforhodamine B (SRB) assay; not active (> 100 uM)
HCT-15 [8] = assay: Tested for in vitro cytotoxicity against HCT 15 (human colon) tumor cell line using sulforhodamine B (SRB) assay; not active (> 100 uM); assay type: functional, cell-based
SK-MEL-2 [9] = assay: Tested for in vitro cytotoxicity against SK-MEL-2 (human melanoma) tumor cell line using sulforhodamine B (SRB) assay; not active (> 100 uM); assay type: functional, cell-based
SK-OV-3 [10] = assay: Tested for in vitro cytotoxicity against SKOV-3 (human ovarian) tumor cell line using sulforhodamine B (SRB) assay; assay type: functional, cell-based
HCT-15 [11] = assay: Tested for in vitro cytotoxicity against HCT 15 (human colon) tumor cell line using sulforhodamine B (SRB) assay; assay type: functional, cell-based
SK-MEL-2 [12] = assay: Tested for in vitro cytotoxicity against SK-MEL-2 (human melanoma) tumor cell line using sulforhodamine B (SRB) assay; assay type: functional, cell-based
XF498 [13] = assay: Tested for in vitro cytotoxicity against XF498 (human CNS) tumor cell line using sulforhodamine B (SRB) assay; assay type: functional, cell-based
Mus musculus = assay: In vivo anti tumor activity towards P388 leukemia in BDFl mouse expressed as T/C; assay type: functional
SK-MEL-2 [14] = assay: Tested for inhibitory activity against SK-MEL-2 (human melanoma) tumor cell line; assay type: functional, cell-based
HCT-15 [15] = assay: In vitro cytotoxicity against HCT 15 (human colon) tumor cell line.; assay type: functional, cell-based
XF498 [16] = assay: In vitro cytotoxicity against XF498 (human CNS) tumor cell line.; assay type: functional, cell-based

`Cc1ccc2c(N3CCN(C)CC3)nc(-c3ccccc3C)cc2c1` gave an IC50 (XF498 (Homo sapiens)) of 77.6 µM, an IC50 (SK-MEL-2 [1]; Homo sapiens, SK-MEL-2) of 3.38 µM and an IC50 (A549 [2]; Homo sapiens, A549) of 7.59 µM. It also gave an IC50 (SK-OV-3 [3]; Homo sapiens, SK-OV-3) of 5.13 µM and an IC50 (HCT-15 (Homo sapiens) [4]) of 6.61 µM.

`Cc1ccc(-c2cc3cc(C)ccc3c(N3CCN(C)CC3)n2)cc1` gave an IC50 (XF498 (Homo sapiens)) of 8.32 µM, an IC50 (SK-MEL-2 [1]; Homo sapiens, SK-MEL-2) of 2.4 µM and an IC50 (A549 [2]; Homo sapiens, A549) of 7.24 µM. For the same compound, the IC50 (SK-OV-3 [3]; Homo sapiens, SK-OV-3) was 7.08 µM and the IC50 (HCT-15 (Homo sapiens) [4]) was 4.47 µM.

For `Cc1ccc2c(O)nc(-c3ccccc3)cc2c1`, the IC50 (XF498 (Homo sapiens)) was 5.13 µM, the IC50 (SK-MEL-2 [1]; Homo sapiens, SK-MEL-2) was 1.58 µM and the IC50 (A549 [2]; Homo sapiens, A549) was 1.32 µM. It also gave an IC50 (SK-OV-3 [3]; Homo sapiens, SK-OV-3) of 1.7 µM and an IC50 (HCT-15 (Homo sapiens) [4]) of 0.76 µM.

`COc1ccc(-c2cc3c(N(C)C)cccc3c(O)n2)cc1` was tested, and the IC50 (A549 [5]) was “Not Active”, the IC50 (SK-OV-3 [6]) was “Not Active” and the IC50 (HCT-15 (Homo sapiens) [7]) was “Not Active”. The IC50 (HCT-15 [8]) was “Not Active” and the IC50 (SK-MEL-2 [9]) was “Not Active”.

With `Cc1ccc2c(O)nc(-c3ccc(Cl)cc3)cc2c1` the IC50 (A549 [2]) was 5.75 µM, the IC50 (SK-OV-3 [10]) was 6.03 µM and the IC50 (HCT-15 [11]) was 11.2 µM. For the same compound, the IC50 (SK-MEL-2 [12]) was 6.31 µM and the IC50 (XF498 [13]) was 11.2 µM.

For `CN1CCN(c2nc(-c3ccccc3)cc3c(N(C)C)cccc23)CC1`, the IC50 (XF498 (Homo sapiens)) was 19.9 µM, the IC50 (SK-MEL-2 [1]; Homo sapiens, SK-MEL-2) was 7.08 µM and the IC50 (A549 [2]; Homo sapiens, A549) was 10 µM. For the same compound, the IC50 (SK-OV-3 [3]; Homo sapiens, SK-OV-3) was 11.2 µM and the IC50 (HCT-15 (Homo sapiens) [4]) was 9.55 µM.

Work on `CN1CCN(c2nc(-c3ccccc3)cc3ccccc23)CC1` yielded an IC50 (XF498 (Homo sapiens)) of 37.1 µM, an IC50 (SK-MEL-2 [1]; Homo sapiens, SK-MEL-2) of 11.8 µM and a T/C (Mus musculus) of 160%. It also gave an IC50 (A549 [2]; Homo sapiens, A549) of 25.1 µM, an IC50 (SK-OV-3 [3]; Homo sapiens, SK-OV-3) of 22.4 µM and an IC50 (HCT-15 (Homo sapiens) [4]) of 18.6 µM.

With `Oc1nc(-c2ccccc2)cc2ccccc12` the IC50 (XF498 (Homo sapiens)) was 5.89 µM, the IC50 (SK-MEL-2 [1]; Homo sapiens, SK-MEL-2) was 2.57 µM and the IC50 (A549 [2]; Homo sapiens, A549) was 5.75 µM. It also gave an IC50 (SK-OV-3 [3]; Homo sapiens, SK-OV-3) of 2.45 µM and an IC50 (HCT-15 (Homo sapiens) [4]) of 1.38 µM.

With `Oc1nc(-c2ccc(C(F)(F)F)cc2)cc2ccccc12` the IC50 (A549 [5]) was “Not Active”, the IC50 (HCT-15 (Homo sapiens) [7]) was “Not Active” and the IC50 (HCT-15 [8]) was “Not Active”. For the same compound, the IC50 (SK-OV-3 [3]; Homo sapiens, SK-OV-3) was 87.3 µM and the IC50 (SK-MEL-2 [9]) was “Not Active”.

`COc1ccc2c(c[n+](C)c3c4cc5c(cc4ccc23)OCO5)c1O` [FAGARIDINE] showed an IC50 (XF498 (Homo sapiens)) of 1.12 µM, an IC50 (SK-MEL-2 [1]; Homo sapiens, SK-MEL-2) of 2.75 µM and an IC50 (A549 [2]; Homo sapiens, A549) of 1.02 µM. The IC50 (SK-OV-3 [3]; Homo sapiens, SK-OV-3) was 1.35 µM and the IC50 (HCT-15 (Homo sapiens) [4]) was 1.12 µM.

With `Cc1ccc(-c2cc3cc(C)ccc3c(O)n2)cc1` the IC50 (XF498 (Homo sapiens)) was 35.5 µM, the IC50 (SK-MEL-2 [1]; Homo sapiens, SK-MEL-2) was 7.76 µM and the IC50 (A549 [2]; Homo sapiens, A549) was 5.62 µM. It also gave an IC50 (SK-OV-3 [3]; Homo sapiens, SK-OV-3) of 4.9 µM and an IC50 (HCT-15 (Homo sapiens) [4]) of 11.2 µM.

For `Cc1ccc2c(O)nc(-c3ccccc3C)cc2c1`, the IC50 (XF498 (Homo sapiens)) was 30.9 µM, the IC50 (SK-MEL-2 [1]; Homo sapiens, SK-MEL-2) was 2.63 µM and the IC50 (A549 [2]; Homo sapiens, A549) was 5.89 µM. It also gave an IC50 (SK-OV-3 [3]; Homo sapiens, SK-OV-3) of 4.27 µM and an IC50 (HCT-15 (Homo sapiens) [4]) of 1.99 µM.

`COc1ccc(-c2cc3c(N(C)C)cccc3c(N3CCN(C)CC3)n2)cc1` gave an IC50 (XF498 (Homo sapiens)) of 6.17 µM, an IC50 (SK-MEL-2 [1]; Homo sapiens, SK-MEL-2) of 3.98 µM and an IC50 (A549 [2]; Homo sapiens, A549) of 1.82 µM. The IC50 (SK-OV-3 [3]; Homo sapiens, SK-OV-3) was 13.2 µM and the IC50 (HCT-15 (Homo sapiens) [4]) was 10.7 µM.

With `COc1ccc(-c2cc3ccccc3c(S)n2)cc1` the IC50 (XF498 (Homo sapiens)) was 83.2 µM, the IC50 (A549 [5]) was “Not Active” and the IC50 (SK-OV-3 [6]) was “Not Active”. For the same compound, the IC50 (HCT-15 (Homo sapiens) [7]) was “Not Active” and the IC50 (SK-MEL-2 [9]) was “Not Active”.

In the case of `C=Cc1cc2c(cc1-c1cc3ccc(OC)c(OC)c3c(=O)n1C)OCO2`, the IC50 (SK-MEL-2 [14]) is reported as 0.0002 µM.

`Cc1ccc2c(S)nc(-c3ccccc3)cc2c1` showed an IC50 (SK-MEL-2 [1]; Homo sapiens, SK-MEL-2) of 19.5 µM, an IC50 (SK-MEL-2 [1]; sk-mel-2) of 25.1 µM and an IC50 (A549 [2]; Homo sapiens, A549) of 8.51 µM. The IC50 (A549 [2]; a549) was 11 µM, the IC50 (HCT-15 [15]) was 19.1 µM and 41.9 µM and the IC50 (XF498 [16]) was 9.12 µM and 75.9 µM. It also gave an IC50 (SK-OV-3 [3]; Homo sapiens, SK-OV-3) of 34.7 µM and an IC50 (SK-OV-3 [3]; sk-ov-3) of 56.2 µM.

With `Cc1ccc(-c2cc3c(N(C)C)cccc3c(O)n2)cc1` the IC50 (A549 [5]) was “Not Active”, the IC50 (SK-OV-3 [6]) was “Not Active” and the IC50 (HCT-15 (Homo sapiens) [7]) was “Not Active”. For the same compound, the IC50 (HCT-15 [8]) was “Not Active” and the IC50 (SK-MEL-2 [9]) was “Not Active”.

For `COc1ccc(-c2cc3cc(C)ccc3c(N3CCN(C)CC3)n2)cc1`, the IC50 (XF498 (Homo sapiens)) was 9.33 µM, the IC50 (SK-MEL-2 [1]; Homo sapiens, SK-MEL-2) was 3.71 µM and the IC50 (A549 [2]; Homo sapiens, A549) was 7.41 µM. The IC50 (SK-OV-3 [3]; Homo sapiens, SK-OV-3) was 7.94 µM and the IC50 (HCT-15 (Homo sapiens) [4]) was 7.41 µM.

`Cc1ccc2c(N3CCN(C)CC3)nc(-c3ccc(Cl)cc3)cc2c1` was tested, and the IC50 (XF498 (Homo sapiens)) was 6.03 µM, the IC50 (SK-MEL-2 [1]; Homo sapiens, SK-MEL-2) was 2.4 µM and the IC50 (A549 [2]; Homo sapiens, A549) was 3.19 µM. It also gave an IC50 (SK-OV-3 [3]; Homo sapiens, SK-OV-3) of 5.75 µM and an IC50 (HCT-15 (Homo sapiens) [4]) of 4.07 µM.

`CN1CCN(c2nc(-c3ccc(Cl)cc3)cc3c(N(C)C)cccc23)CC1` was tested, and the IC50 (XF498 (Homo sapiens)) was 7.98 µM, the IC50 (SK-MEL-2 [1]; Homo sapiens, SK-MEL-2) was 4.3 µM and the IC50 (A549 [2]; Homo sapiens, A549) was 7.45 µM. It also gave an IC50 (SK-OV-3 [3]; Homo sapiens, SK-OV-3) of 7.56 µM and an IC50 (HCT-15 (Homo sapiens) [4]) of 7.3 µM.

With `CN(C)c1cccc2c(O)nc(-c3ccc(Br)cc3)cc12` the IC50 (A549 [5]) was “Not Active”, the IC50 (SK-OV-3 [6]) was “Not Active” and the IC50 (HCT-15 (Homo sapiens) [7]) was “Not Active”. The IC50 (HCT-15 [8]) was “Not Active” and the IC50 (SK-MEL-2 [9]) was “Not Active”.

`Cc1ccc(-c2cc3ccccc3c(O)n2)cc1` gave an IC50 (XF498 (Homo sapiens)) of 42.7 µM, an IC50 (SK-MEL-2 [1]; Homo sapiens, SK-MEL-2) of 5.01 µM and an IC50 (A549 [2]; Homo sapiens, A549) of 30.2 µM. It also gave an IC50 (SK-OV-3 [3]; Homo sapiens, SK-OV-3) of 13.8 µM and an IC50 (HCT-15 (Homo sapiens) [4]) of 7.08 µM.

For `CN(C)c1cccc2c(O)nc(-c3ccccc3)cc12`, the IC50 (A549 [5]) was “Not Active”, the IC50 (SK-OV-3 [6]) was “Not Active” and the IC50 (HCT-15 (Homo sapiens) [7]) was “Not Active”. The IC50 (HCT-15 [8]) was “Not Active” and the IC50 (SK-MEL-2 [9]) was “Not Active”.

`Oc1nc(-c2ccc3c(c2)OCO3)cc2ccccc12` was tested, and the IC50 (XF498 (Homo sapiens)) was 17.8 µM, the IC50 (SK-MEL-2 [1]; Homo sapiens, SK-MEL-2) was 25.1 µM and the IC50 (A549 [5]) was “Not Active”. For the same compound, the IC50 (SK-OV-3 [3]; Homo sapiens, SK-OV-3) was 77.6 µM and the IC50 (HCT-15 (Homo sapiens) [4]) was 2.69 µM.

`Sc1nc(-c2ccccc2)cc2ccccc12` was tested, and the IC50 (A549 [5]) was “Not Active”, the IC50 (SK-OV-3 [6]) was “Not Active” and the IC50 (HCT-15 (Homo sapiens) [7]) was “Not Active”. For the same compound, the IC50 (HCT-15 [8]) was “Not Active” and the IC50 (SK-MEL-2 [9]) was “Not Active”.
